According to patent US7378397B2 (The Provost, Fellows and Scholars of the College of the …, priority 2000, dated 2008):
Where a SMILES comes first, the peptide text is derived from it. [ ]: non-standard residue; d: D form. pGlu = O=C1CC[C@@H](C(=O)O)N1

Target: T1, TRH-DE (Sus scrofa, UniProt A0A287AP33)
T1 construct: The inventor purified TRH-DE from porcine brain according to purification procedures previously published by Dr. K. Bauer; from tissue; host or cells: porcine brain (TRH-DE); bovine kidney (DPP-IV, gift from Dr. C. H. Williams)
T1 sequence (A0A287AP33 1-1066): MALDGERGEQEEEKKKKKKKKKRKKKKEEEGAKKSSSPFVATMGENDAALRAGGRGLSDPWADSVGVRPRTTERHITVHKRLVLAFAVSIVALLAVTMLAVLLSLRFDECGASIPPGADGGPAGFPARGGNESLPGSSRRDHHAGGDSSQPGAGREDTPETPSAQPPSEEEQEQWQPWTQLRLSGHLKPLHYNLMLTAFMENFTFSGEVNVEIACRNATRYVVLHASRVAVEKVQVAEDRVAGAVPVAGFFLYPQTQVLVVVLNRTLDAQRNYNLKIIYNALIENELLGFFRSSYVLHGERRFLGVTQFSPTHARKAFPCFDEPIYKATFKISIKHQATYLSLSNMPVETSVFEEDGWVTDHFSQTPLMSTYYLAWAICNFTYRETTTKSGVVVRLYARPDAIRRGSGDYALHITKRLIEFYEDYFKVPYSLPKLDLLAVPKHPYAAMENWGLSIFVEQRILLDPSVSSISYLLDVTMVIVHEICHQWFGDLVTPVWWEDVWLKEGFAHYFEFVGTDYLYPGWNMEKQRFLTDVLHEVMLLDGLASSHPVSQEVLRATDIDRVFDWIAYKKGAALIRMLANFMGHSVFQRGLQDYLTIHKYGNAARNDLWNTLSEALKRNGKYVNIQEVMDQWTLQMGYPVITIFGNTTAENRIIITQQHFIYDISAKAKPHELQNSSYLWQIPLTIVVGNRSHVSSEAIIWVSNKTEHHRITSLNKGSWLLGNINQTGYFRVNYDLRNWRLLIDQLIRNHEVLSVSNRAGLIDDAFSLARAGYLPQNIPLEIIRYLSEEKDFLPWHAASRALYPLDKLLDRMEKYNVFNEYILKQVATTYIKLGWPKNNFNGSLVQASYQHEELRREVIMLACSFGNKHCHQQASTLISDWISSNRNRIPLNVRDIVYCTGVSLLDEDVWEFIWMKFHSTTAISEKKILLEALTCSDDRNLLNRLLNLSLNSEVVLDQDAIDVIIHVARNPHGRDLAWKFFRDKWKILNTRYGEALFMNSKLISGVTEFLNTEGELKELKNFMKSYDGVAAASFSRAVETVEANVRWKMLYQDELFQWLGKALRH
Experiment: HPLC assay of peptide hydrolysis by TRH-DE (Glp production)
Assay type: biochemical, porcine
Settings: 1 mM peptide incubated with TRH-DE 18 h at 37° C., HPLC
Summary of the method: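 Porcine brain TRH-DE incubated with 1 mM peptide in 20 mM potassium phosphate, pH 7.5, 37 °C: screen with 0.8 μg enzyme for 18 h; rate microassays with 0.8-3.2 μg enzyme for 5 min to 18 h, in triplicate. Reactions stopped with TFA; Glp quantified by C-18 reverse-phase HPLC, UV 206 nm.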

With NC(=O)C[C@H](NC(=O)[C@@H]1CCC(=O)N1)C(=O)N1CCC[C@H]1C(N)=O [Glp-Asn-ProNH2, pyroglutamyl-asparaginyl-prolineamide] ([pGlu]-Asn-Pro-NH2) the “hydrolysis by TRH-DE (release of Glp)” value was “No detectable Glp”.
